Legend:
[1] = test system: lung derived MDSC (CD11b+ Gr-1+ cells) from PR8 infected mice; assay type: cell-based, mouse
[2] = test system: human GM-CSF treated MDSC; assay: Mixed lymphocyte reaction with healthy donors' GM-CSF treated MDSC; assay type: cell-based; settings: for T cell proliferation in MLR with TLR-L treated MDSC: LPS 10 μg/ml, R848 5 μg/ml, Poly I:C 10 μg/ml, 24 h co-culture with added human iNKT cells, DC:MDSC 1:1
[3] = test system: CD11b+ cells from IAV infected individuals; assay type: cell-based, human; settings: L-NMMA and NOHA added together to alloreactive PBL; data not shown
BM derived MDSC = assay: OT-I proliferation assay with BM derived MDSC; assay type: cell-based, mouse; settings: for MDSC suppressive activity on CFSE labelled OT-I proliferation: MDSC incubated 48 h with TLR agonist, in the absence of iNKT cells
[4] = test system: EG7 cells (EL4 tumor cell line transfected with ovalbumin cDNA); design: species or system C57 BL/6 mice; settings: mouse, in vivo, iv
CD11bCD15 positive cells = assay: Melan-A priming experiments with CD11bCD15 positive cells from melanoma patients; assay type: cell-based, human; settings: CD11bCD15 positive cells pulsed with alphaGalCer 100 ng or Threitolceramide 200 ng
Protocol: CD11bCD15 positive cells were pulsed with either alphaGalCer (100 ng) or Threitolceramide (200 ng) for 2 hours and then incubated with autologous iNKT cells overnight before adding autologous DC pulsed with Melan-A26-35 peptide and autologous CD11bCD15 cell depleted total leukocytes.
Experiments in FIG. 29 were carried out using the same conditions as shown in the right column of FIG. 28 (i.e. in the presence of iNKT cells and alphaGalCer pulsed CD11bCD15 positive cells) in the presence of either blocking anti CD1d (middle column) or blocking anti CD40 (right column) antibodies.
In order to assess whether secretion of IL-10 is contributing to the suppressive activity of CD11bCD15 positive cells, expansion of Melan-A26-35 specific T cell responses as assessed in the presence or absence of blocking anti 11-10 receptor antibodies. In the left hand panel of FIG. 31, expansion of Melan-A26-35 specific T cells was assessed using total leukocytes from which CD11b-CD15+ cells were removed (2.33%). Addition of CD11bCD15 positive cells reduced the frequency of Melan-A26-35 specific T cells (0.83%) (central panel).
Purification of CD11b/CD15+ cells. Since CD15 CD11b positive cells have granulocyte density, it is important to purify them without using density gradients, such as Ficol. Red blood cells are lysed from whole blood, using red lysis cell buffer and anti CD11b/CD15 specific antibodies are added to the leukocytes for FACS guided cell sorting.
Melan-A priming experiments. DCs were generated by culturing monocytes for 4 days in RPMI/10% FCS supplemented with 50 ng/ml GM-CSF (Pepro-tech) and 1,000 U/ml IL-4 (Salio, M., et al. 2007. Proc. Natl. Acad. Sci. U.S.A. 104:20490-20495). […] After 2 weeks, cells were stained with HLA-A2 tetramers loaded with melan-A26-35 peptide and anti CD8.
Harnessing iNKT cells. The protocol to purify Cdl lbCd15 cells and differentiate DC is similar to the protocol described earlier. Cdl lbCd15 cells were pulsed with either alphaGalCer (100 ng) or with threitolceramide (200 ng) and then incubated with iNKT cells for 12 hours. Cells were then washed pulsed with the melan-A26-35 peptide and incubated with total leukocytes. After 2 weeks in culture, cells were stained with HLA-A2 melan-A tetramers and anti-CD8 antibodies.

iNKT cells = assay: IFN-γ and IL-4 release from iNKT cells incubated with treated MDSC; assay type: cell-based, mouse; settings: WT MDSC treated with TLR agonist, iNKT cells incubated 48 h
Protocol: (B) IFN-γ and IL-4 release from iNKT cells incubated for 48 h with CpG or Poly I:C treated MDSC, in the presence or absence of anti CD1d blocking antibody. Data represent the average of 3 replicates ±S.D and are representative of 3 separate experiments.
(A) iNKT cells derived from WT mice fail to produce IFN-γ when incubated with TLR-L matured MDSC derived from hexβ^−/− mice. Analysis of IFN-γ secretion by iNKT cells, derived from WT mice, co-incubated with TLR-L treated MDSC derived from either hexβ^−/− or iGb3S^−/− mice. To assess the role of CD1d molecules expressed on the surface of MDSC, TLR-L treated MDSC were also incubated with blocking […].
Isolation and culture of mouse MDSC. […]
Isolation of mouse iNKT cells. […] The % of iNKT cells was measured by CD1d/α-GalCer tetramer staining and ranged from ˜14% to ˜60%. […]
ELISA: 1) Cytokines. […] The amount of IL-12p40, IFN-γ and IL4 was measured using an ELISA kit (eBioscience). […] Sera from PR8 infected mice were collected 6 days post infection and antibody titers were determined by coating 96-well maxisorb NUNC plates with 5 ng/ml of PR8 virus overnight at 4° C. […] Color reactions were developed with 3,3′,5-5′-Tetramethylbenzidine (TMB) (Sigma-Aldrich) and the absorbance was measured at 490 nm.

CNC(=N)NCCC[C@H](N)C(=O)O [L-NMMA, N^G-monomethyl-L-arginine]
OT-I proliferation in the absence of MDSC ([1]; L-NMMA and NOHA added together to OT-I splenocytes, no MDSC, data not shown): did not affect OT-I proliferation
suppressive activity of MDSC from PR8 infected mice on CFSE labelled OT-I proliferation ([1]; […], L-NMMA and NOHA used together (500 μM)): is reduced
MLR suppressive activity of healthy donors GM-CSF treated MDSC ([2]; NOHA and L-NMMA added together): can be blocked
PBL proliferation in MLR in the absence of MDSC ([2]; NOHA and L-NMMA added together, no MDSC, data not shown): does not affect PBL proliferation
T cell proliferation in the absence of CD11b+ cells [3]: did not affect T cell proliferation

CCCCN1C[C@H](O)[C@@H](O)[C@@H](O)[C@H]1CO [NB-DGJ, N-butyldeoxygalactonojirimycin]
ability of iNKT cells to relieve the suppressive activity of MDSC (CFSE labelled OT-I proliferation) (BM derived MDSC; CpG and poly I:C treated MDSC, increasing concentrations of NB-DGJ, incubated with iNKT cells 24 h): reduced the ability of iNKT cells to relieve the suppressive activity of MDSC
OT-I proliferation in absence of MDSC (BM derived MDSC; NB-DGJ added to OT-I splenocytes, no MDSC, data not shown): did not affect OT-I proliferation

CCOCc1nc2c(N)nc3ccccc3c2n1CC(C)(C)O [R848]
MDSC suppressive activity on CFSE labelled OT-I proliferation (BM derived MDSC): partially relieved
T cell proliferation in MLR with TLR-L treated MDSC [2]: rescues T cell proliferation

CCCCCCCCCCCCCCCCCCCCCCCCCC(=O)N[C@@H](COC[C@H](O)[C@@H](O)CO)[C@H](O)[C@H](O)CCCCCCCCCCCCCC [threitolceramide]
frequency of MDSCs (CD11b+Gr1+ positive cells) [4]: lower frequency
frequency of Ova specific T cell responses (H-2Kb tetramer staining) [4]: higher frequency
tumor size / tumor regression [4]: Tumour regression
frequency of Melan-A26-35 specific T cells (CD11bCD15 positive cells; in the absence of added iNKT cells, unpulsed 0.34%): 0.29%
frequency of Melan-A26-35 specific T cells (CD11bCD15 positive cells; with addition of autologous iNKT cells): 2.87%

poly I:C
MDSC suppressive activity on CFSE labelled OT-I proliferation (BM derived MDSC): partially relieved
T cell proliferation in MLR with TLR-L treated MDSC [2]: rescues T cell proliferation
activation of iNKT cells by treated MDSC (IFNγ and IL-4 secretion) (iNKT cells): capable of activating iNKT cells
